US12599676B2, “Cytotoxic imidazo[1,2-A]pyridine compounds and their use in therapy” (MyricX Pharma Limited, priority 2022, dated 2026)

Columns and labels:
[1] = tested on: LYXFDLBC2835 (patient-derived xenograft lymphoma); assay: Cell cytotoxicity CellTiter-Glo, LYXFDLBC2835; type: cell-based
Experimental: (§1) Cells were seeded in 96-well microplates and treated with compounds or cisplatin (as a positive control) at 9 increasing concentrations in technical triplicate. […] On day 1, 90 μL of various cell suspensions with the number of cells ranging from 5000-8000 cells/well were seeded into wells of a 96-well plate (Corning). The number of cells to be seeded was previously determined. • 2. All 96-wells plates with cells were placed in an incubator overnight at 37° C. with 5% CO2. • 3. On day 2, cells were observed under a microscope ensuring the cells treated with vehicle control were in good condition. • 4. A dilution series of the test compounds and cisplatin were prepared at 10× the final concentrations required. 10 μL/well of 10× compound solution was added to the corresponding plates. The final volume was 100 μL/well for all the plates. Final DMSO concentration was 0.1%. • 5. On day 5 (after 72 hours of incubation), 50 μL of CTG reagent was added to each well. • 6. Contents were mixed for 5 minutes on an orbital shaker to facilitate cell lysis. • 7. The plate was allowed to incubate at room temperature for 10 minutes to stabilize luminescent signals.
(§2) The effects of Comparator Compound 1 and certain Example compounds on the viability of various cell lines (LYXFDLBC2835, LYXFDLBC4009 and LYXFDLBC411 (patient-derived xenograft lymphoma), HT1080 (human fibrosarcoma), CA46 (human B cell lymphoma), RKO (human colon carcinoma), NCI-H1703 (human lung squamous cell carcinoma), MX-1 (human breast carcinoma), DU4475 (human breast carcinoma), LU2511 (human lung large cell undifferentiated carcinoma), LU0884 (human lung squamous cell carcinoma)), Panc-1 (human pancreatic carcinoma), MCF-7 (human breast cancer), SW480 (human colon adenocarcinoma) and HCC1806 (human breast ductal carcinoma) were performed using the standard CellTiter-Glo assay (CTG, Promega) as described in Biological Example 2. Compounds which show efficacy in these assays are expected to be useful as agents for treating or preventing hyperproliferative disorders such as cancer.

[2] = tested on: LU0884 (human lung squamous cell carcinoma); assay: Cell cytotoxicity CellTiter-Glo, LU0884; type: cell-based
Experimental: as §1, with “signals. […]” for “signals.”

[3] = tested on: Caco-2 cells; assay: Caco-2 cell permeability assay; type: in vitro ADME; details: apical to basal Papp, 2 μM, pH 7.4, 2.5 h
Summary of the method: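 Caco-2 monolayers grown 10 days were dosed at 2 μM (1% DMSO) on the donor side in HBSS/10 mM HEPES pH 7.4, for both AB and BA directions, then incubated 2.5 h at 37 °C without shaking. Donor and acceptor samples were quantified by LC-MS/MS to give Papp. Wells that failed a Lucifer Yellow integrity check (>1% passage) were excluded.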

[4] = tested on: LU2511 (human lung large cell undifferentiated carcinoma); assay: Cell cytotoxicity CellTiter-Glo, LU2511; type: cell-based
Experimental: as §1, with “signals. […]” for “signals.”

[5] = tested on: LYXFDLBC4009 (patient-derived xenograft lymphoma); assay: Cell cytotoxicity CellTiter-Glo, LYXFDLBC4009; type: cell-based
Experimental: as §1, §2

[6] = tested on: SU-DHL-10 cell line (human B cell lymphoma); assay: Cell cytotoxicity in SU-DHL-10 cell line (CellTiter-Glo); type: cell-based; details: Homo sapiens, SU-DHL10, 72 h, 72 h treatment, CTG
Summary of the method: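 Cells seeded at 5000-8000/well, dosed next day with 9 concentrations in triplicate (DMSO 0.1% final) and incubated 72 h at 37° C, 5% CO2. Viability by CellTiter-Glo luminescence normalised to vehicle (100%) and medium blank; IC50 from sigmoidal nonlinear regression.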

[7] = tested on: LYXFDLBC4113 (patient-derived xenograft lymphoma); assay: Cell cytotoxicity CellTiter-Glo, LYXFDLBC4113; type: cell-based
Experimental: as §1, §2

[8] = tested on: DU4475 (human breast carcinoma); assay: Cell cytotoxicity CellTiter-Glo, DU4475; type: cell-based; details: DU-4475
Experimental: as §1, with “signals. […]” for “signals.”

Caco-2 A-B [3]	Structure (SMILES)	IC50 [1]	IC50 [2]	IC50 [4]	IC50 [5]	IC50 [6]	IC50 [7]	IC50 [8]
0.95 ×10⁻⁶ cm/s	CNCc1cnc2ccc(-c3ccc(F)c(F)c3OCCc3c(C(O)C(C)(C)C)nn(C)c3C)cn12 (single isomer, unassigned) [Example 12, 1-(4-(2-(2,3-difluoro-6-(3-((methylamino)methyl)imidazo[1,2-a]pyridin-6-yl)phenoxy)ethyl)-1,5-dimethyl-1H-pyrazol-3-yl)-2,2-dimethylpropan-1-ol]	10 nM	3 nM	0.07 nM	3 nM	0.6 nM	3 nM	
0.0 ×10⁻⁶ cm/s	Cc1c(CCOc2cc(Cl)ccc2-c2ccc3ncc(CCN)n3c2)c(C(=O)N(C)C)nn1C [Comparator Compound 1, 4-(2-{2-[3-(2-aminoethyl)imidazo[1,2-a]pyridin-6-yl]-5-chlorophenoxy}ethyl)-N,N,1,5-tetramethyl-1H-pyrazole-3-carboxamide, reference compound]	130 nM	44 nM	9 nM	1540 nM	5 nM	890 nM	> 1000 nM
